pEC50, pKi: −log10 of the molar value.
Assays:
HL-60 = test: Cell viability assay, AML cell line HL-60; format: cell-based; conditions: 48 h treatment, live cells by flow cytometry
Method: (§1) 0.15×10^6 AML cell lines (HL-60 or MonoMac-1) per mL were cultured in completed RPMI medium, supplemented with 10% Fetal bovine serum (FBS). Compounds were added to the medium at the concentration indicated (0.1, 1 and 10 μM), while controls were treated with equivalent concentration of vehicle (DMSO). Primary validation screenings were analyzed after 72 h of treatment, EC50 was determined upon 48 h treatments. Cells were stained with the live-dead discrimination dye 7-aminoactinomycin D (7-AAD) and Hoechst 33342 and acquired in a flow cytometer, with a volumetric counting. Live cells were discriminated based on a discrete FSC-SSC profile, 7-AAD negativity and dim positivity to Hoechst 33342. EC50 was calculated with the Prism GraphPad software.

human 5-HT2A receptor = human 5-HT2A receptor (Homo sapiens (Human), UniProt P28223); test: Competition binding in human 5-HT2A receptor; conditions: [3H]-Ketanserin, CHO-5-HT2A membranes; read-out: h5-HT2A Ki
Method: Serotonin 5-HT2A receptor competition binding experiments were carried out in a polypropilene 96-well plate. In each well was incubated 80 μg of membranes from CHO-5-HT2A cell line prepared in the laboratory (protein concentration=4337 μg/ml), 1 nM [^3H]-Ketanserin (47.3 Ci/mmol, 1 mCi/ml, Perkin Elmer NET791250UC) and compounds studied and standard. Non-specific binding was determined in the presence of Methysergide 1 μM (Sigma M137). The reaction mixture (Vt: 250 μl/well) was incubated at 37° C. for 30 min, 200 μL was transfered to GF/B 96-well plate (Millipore, Madrid, Spain) pretreated with 0.5% of PEI and treated with binding buffer (Tris-HCl 50 mM, pH=7.4), after was filtered and washed six times with 250 μl wash buffer (Tris-HCl 50 mM, pH=6.6), before measuring in a microplate beta scintillation counter (Microbeta Trilux, PerkinElmer, Madrid, Spain).
The raw radioactivity data is adjusted to a logistic regression of 4 parameters using GraphPad Prism software, from the specific junction the value of IC50 is obtained. From the IC50 the Ki is calculated according to the following formula: […]
(§2) Being: • IC50: inhibitory concentration, • D: real concentration of radioligand and • Kd: dissociation constant (affinity of radioligand to the receptor).

human 5-HT1B receptor = human 5-HT1B receptor (Homo sapiens (Human), UniProt P28222); test: Competition binding in human 5-HT1B receptor; conditions: [3H]-GR125743, Hela-5-HT1B membranes; read-out: h5-HT1B Ki
Method: Serotonin 5-HT1B receptor competition binding experiments were carried out in a polypropylene 96-well plate. In each well was incubated 5 μg of membranes from Hela-5-HT1B cell line prepared in the laboratory (Lot: A001/14-11-2011, protein concentration=3179 μg/ml), 1.5 nM [^3H]-GR125743 ([…], 0.1 mCi/ml, Perkin Elmer NET1172100UC) and compounds studied and standard. Non-specific binding was determined in the presence of GR55562 10 μM (TOCRIS 1054). The reaction mixture (Vt: 250 μl/well) was incubated at 25° C. for 90 min, 200 μL was transfered to GF/C 96-well plate (Millipore, Madrid, Spain) pretreated with 0.5% of PEI and treated with binding buffer (Tris-HCl 50 mM, EDTA 1 mM, MgCl2 10 mM, pH=7.4), after was filtered and washed four times with 250 μl wash buffer (Tris-HCl 50 mM, pH=7.4), before measuring in a microplate beta scintillation counter (Microbeta Trilux, PerkinElmer, Madrid, Spain). […] From the IC50 the Ki is calculated according to the following formula: […]
as §2

[1] = test system: human acute myeloid leukemia (AML) cells; conditions: every 2 days for 14 days, apomorphine 5 mg/kg, methiothepin 0.1 mg/kg, cited from earlier work; for AML burden in bone marrow (BM): vs vehicle
MonoMac-1 = test: Cell viability assay, AML cell line MonoMac-1; format: cell-based; conditions: 48 h treatment, live cells by flow cytometry
Method: as §1

[2] = Healthy blood cells viability assay; format: cell-based; conditions: 48 h treatment, healthy peripheral blood mononuclear cells; read-out: EC50 (uM), cytotoxic capacity on healthy cells
Method: 0.5×10^6 peripheral blood-mononuclear blood cells per mL were cultured in completed RPM medium, supplemented with 10% FBS. Compounds were added to the medium at 0.5/1/5/10/50 μM, while controls were treated with equivalent concentration of vehicle (DMSO). Upon 48 h treatment, cells were stained with the live-dead discrimination dye 7-AAD and Hoechst 33342, the pan-hernatopoietic surface marker CD45, and acquired in a flow cytometer, with a volumetric counting. Live cells were discriminated based on a discrete FSC-SSC profile, 7-AAD negativity, dim positivity to Hoechst 33342 and CD45 positivity. EC50 was calculated with the Prism GraphPad software.

Chain of human 5-HT2A receptor (P28223 whole entry): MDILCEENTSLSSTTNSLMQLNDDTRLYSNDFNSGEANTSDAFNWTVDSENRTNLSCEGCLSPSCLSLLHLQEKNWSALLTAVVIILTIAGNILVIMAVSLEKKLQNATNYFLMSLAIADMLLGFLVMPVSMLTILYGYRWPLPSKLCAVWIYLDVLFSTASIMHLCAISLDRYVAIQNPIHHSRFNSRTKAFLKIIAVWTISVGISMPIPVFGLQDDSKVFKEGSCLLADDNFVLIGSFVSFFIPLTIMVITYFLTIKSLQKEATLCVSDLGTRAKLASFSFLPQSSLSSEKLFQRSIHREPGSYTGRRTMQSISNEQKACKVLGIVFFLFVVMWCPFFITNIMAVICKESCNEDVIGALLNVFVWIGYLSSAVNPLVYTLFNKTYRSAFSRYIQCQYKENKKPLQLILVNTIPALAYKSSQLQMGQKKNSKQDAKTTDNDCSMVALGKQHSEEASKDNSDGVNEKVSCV
Chain of human 5-HT1B receptor (P28222 whole entry): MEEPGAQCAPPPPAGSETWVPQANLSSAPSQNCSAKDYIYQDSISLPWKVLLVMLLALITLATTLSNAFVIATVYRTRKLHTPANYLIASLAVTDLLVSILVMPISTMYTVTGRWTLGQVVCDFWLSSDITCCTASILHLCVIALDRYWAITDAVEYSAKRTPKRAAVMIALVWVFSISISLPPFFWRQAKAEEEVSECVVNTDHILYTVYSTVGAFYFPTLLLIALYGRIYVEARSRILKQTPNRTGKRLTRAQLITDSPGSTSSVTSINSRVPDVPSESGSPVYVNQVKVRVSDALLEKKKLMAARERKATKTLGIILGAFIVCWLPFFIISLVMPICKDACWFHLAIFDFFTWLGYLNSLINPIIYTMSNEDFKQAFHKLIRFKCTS

SMILES | pEC50 (HL-60; Homo sapiens, HL-60) | pKi (human 5-HT2A receptor) | pKi (human 5-HT1B receptor) | clonogenic capacity of engrafted AML cells [1] | AML burden in bone marrow (BM) [1] | pEC50 (MonoMac-1; Mono-Mac-1) | EC50 at 48 h [2] [µM] | pEC50 (HL-60) | pEC50 (MonoMac-1)
CN1CCc2cccc3c2[C@H]1Cc1ccc(O)c(O)c1-3 [Apomorphine, reference compound] | 5.31 | 8.16 | 5.76 | impaired | significant reduction | 4.93 | – | – | –
Cc1nc(-c2ccc(-c3ccc(C(=O)Nc4ccc(C#N)c(OCCN(C)C)c4)cn3)c(C3CC3)c2)no1 [Example 7, N-(4-cyano-3-(2-(dimethylamino)ethoxy)phenyl)-6-(2-cyclopropyl-4-(5-methyl-1,2,4-oxadiazol-3-yl)phenyl)nicotinamide] | 6.19 | 5.60 | 8.01 | – | – | 6.10 | 50 | – | –
Cc1nc(-c2ccc(-c3ccc(C(=O)Nc4cc(OCCN(C)C)c(C#N)cn4)cc3)c(C3CC3)c2)no1 [Example 21, N-(5-cyano-4-(2-(dimethylamino)ethoxy)pyridin-2-yl)-2′-cyclopropyl-4′-(5-methyl-1,2,4-oxadiazol-3-yl)-[1,1′-biphenyl]-4-carboxamide] | 5.44 | 5.46 | 8.20 | – | – | 5.48 | > 50 | – | –
Cc1nc(-c2ccc(-c3ccc(C(=O)Nc4cc(OCCN(C)C)c(C#N)cn4)cc3)c(Cl)c2)no1 [Example 23, 2′-chloro-N-(5-cyano-4-(2-(dimethylamino)ethoxy)pyridin-2-yl)-4′-(5-methyl-1,2,4-oxadiazol-3-yl)-[1,1′-biphenyl]-4-carboxamide] | 6.01 | 5.52 | 8.10 | – | – | 6.27 | > 50 | – | –
Cc1nc(-c2ccc(-c3ccc(C(=O)Nc4ncc(C#N)c(OCCN(C)C)n4)cc3)c(C3CC3)c2)no1 [Example 36, N-(5-cyano-4-(2-(dimethylamino)ethoxy)pyrimidin-2-yl)-2′-cyclopropyl-4′-(5-methyl-1,2,4-oxadiazol-3-yl)-[1,1′-biphenyl]-4-carboxamide] | 5.23 | – | – | – | – | 5.13 | 25 | – | –
Cc1nc(-c2ccc(-c3ccc(C(=O)Nc4ncc(C#N)c(OCCN(C)C)n4)cc3)c(Cl)c2)no1 [Example 38, 2′-chloro-N-(5-cyano-4-(2-(dimethylamino)ethoxy)pyrimidin-2-yl)-4′-(5-methyl-1,2,4-oxadiazol-3-yl)-[1,1′-biphenyl]-4-carboxamide] | – | < 5.00 | 7.78 | – | – | – | 50 | – | –
Cc1nc(-c2ccc(-c3ccc(C(=O)Nc4cc(OCCN(C)C)c(Br)cn4)cn3)c(C3CC3)c2)no1 [Example 39, N-(5-bromo-4-(2-(dimethylamino)ethoxy)pyridin-2-yl)-6-(2-cyclopropyl-4-(5-methyl-1,2,4-oxadiazol-3-yl)phenyl)nicotinamide] | 5.46 | – | – | – | – | 5.59 | 50 | – | –
Cc1nc(-c2ccc(-c3ccc(C(=O)Nc4cc(OCCN(C)C)c(Br)cn4)cn3)c(F)c2)no1 [Example 40, N-(5-bromo-4-(2-(dimethylamino)ethoxy)pyridin-2-yl)-6-(2-fluoro-4-(5-methyl-1,2,4-oxadiazol-3-yl)phenyl)nicotinamide] | 6.00 | 5.82 | 8.46 | – | – | 6.24 | – | – | –
Cc1nc(-c2ccc(-c3ccc(C(=O)Nc4cc(OCCN(C)C)c(Br)cn4)cn3)c(Cl)c2)no1 [Example 41, N-(5-bromo-4-(2-(dimethylamino)ethoxy)pyridin-2-yl)-6-(2-chloro-4-(5-methyl-1,2,4-oxadiazol-3-yl)phenyl)nicotinamide] | – | 6.00 | 9.52 | – | – | – | – | – | –
Cc1nc(-c2ccc(-c3ccc(C(=O)Nc4cc(OCCN(C)C)c(Br)cn4)cn3)c(C(F)(F)F)c2)no1 [Example 42, N-(5-bromo-4-(2-(dimethylamino)ethoxy)pyridin-2-yl)-6-(4-(5-methyl-1,2,4-oxadiazol-3-yl)-2-(trifluoromethyl)phenyl)nicotinamide] | – | 5.46 | 8.70 | – | – | – | – | – | –
COc1cc(-c2noc(C)n2)ccc1-c1ccc(C(=O)Nc2cc(OCCN(C)C)c(Br)cn2)cn1 [Example 43, N-(5-bromo-4-(2-(dimethylamino)ethoxy)pyridin-2-yl)-6-(2-methoxy-4-(5-methyl-1,2,4-oxadiazol-3-yl)phenyl)nicotinamide] | 5.60 | 5.70 | 8.82 | – | – | 5.72 | – | – | –
Cc1nc(-c2ccc(-c3ccc(C(=O)Nc4cc(OCCN(C)C)c(C#N)cn4)cn3)c(C3CC3)c2)no1 [Example 45, N-(5-cyano-4-(2-(dimethylamino)ethoxy)pyridin-2-yl)-6-(2-cyclopropyl-4-(5-methyl-1,2,4-oxadiazol-3-yl)phenyl)nicotinamide] | 5.75 | < 5.00 | 7.59 | – | – | 5.94 | > 50 | – | –
Cc1nc(-c2ccc(-c3ccc(C(=O)Nc4cc(OCCN(C)C)c(C#N)cn4)cn3)c(Cl)c2)no1 [Example 47, 6-(2-chloro-4-(5-methyl-1,2,4-oxadiazol-3-yl)phenyl)-N-(5-cyano-4-(2 (dimethylamino)ethoxy)pyridin-2-yl)nicotinamide] | 5.18 | < 5.00 | 8.01 | – | – | 5.39 | 25 | – | –
COc1cc(-c2noc(C)n2)ccc1-c1ccc(C(=O)Nc2cc(OCCN(C)C)c(C#N)cn2)cn1 [Example 49, N-(5-cyano-4-(2-(dimethyiamino)ethoxy)pyridin-2-yl)-6-(2-methoxy-4-(5-methyl-1,2,4-oxadiazol-3-yl)phenyl)nicotinamide] | – | < 5.00 | 6.90 | – | – | – | – | 5.94 | 5.38
Cc1nc(-c2ccc(-c3ccc(C(=O)Nc4ccc(C#N)c(OCCN(C)C)n4)cn3)c(C3CC3)c2)no1 [Example 54, N-(5-cyano-6-(2-(dimethylamino)ethoxy)pyridin-2-yl)-6-(2-cyclopropyl-4-(5-methyl-1,2,4-oxadiazol-3-yl)phenyl)nicotinamide] | 5.97 | < 5.00 | 7.32 | – | – | 5.98 | – | – | –
Cc1nc(-c2ccc(-c3ccc(NC(=O)c4ccc(Br)c(OCCN(C)C)c4)cn3)c(F)c2)no1 [Example 65, 4-bromo-3-(2-(dimethylamino)ethoxy)-N-(6-(2-fluoro-4-(5-methyl-1,2,4-oxadiazol-3-yl)phenyl)pyridin-3-yl)benzamide] | 6.03 | 6.00 | 9.30 | – | – | 5.88 | – | – | –
CSc1ccc2c(c1)C(N1CCN(C)CC1)Cc1ccccc1S2 (stereo not drawn) [methiothepin] | – | – | – | impaired | significant reduction | – | – | – | –

— patent US20240166639A1, “POTENT AND SELECTIVE COMPOUNDS AS SEROTONIN 1B RECEPTOR MODULATORS” (LEUKOS BIOTECH, S.L., priority 2020, published 2024)
